Experimental data: the supplement of paper PMC10307832

Columns and labels:
Experiment in all cases: relative viability (nuclei count vs DMSO), 5 days (fraction); higher = more cells survive
A-427 = system: A-427
In short: (§1)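 Relative viability divides the nuclei count in treated wells by that in vehicle wells. Lung cancer cell lines were seeded in 1536-well plates, dosed by pin tool the next day, and fixed and stained after 5 days in one step with final 0.05% Triton X-100, 1% formaldehyde and 1 ug/ml Hoechst. Dosing was a single drug or a fixed anchor-drug dose plus five library-drug doses (not always all listed) in √10 steps, and values are medians of duplicate plates imaged at 4×.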

CAL-12T = system: CAL-12T
In short: as §1

COR-L 105 = system: COR-L 105
In short: as §1

EMC-BAC-2 = system: EMC-BAC-2
In short: as §1

HARA = system: HARA
In short: as §1

HCC-366 = system: HCC-366
In short: as §1

HCC-827 = system: HCC-827
In short: as §1

HOP-62 = system: HOP-62
In short: as §1

LCLC-103H = system: LCLC-103H
In short: as §1

NCI-H1395 = system: NCI-H1395
In short: as §1

NCI-H1437 = system: NCI-H1437
In short: as §1

NCI-H1755 = system: NCI-H1755
In short: as §1

NCI-H1792 = system: NCI-H1792
In short: as §1

NCI-H1915 = system: NCI-H1915
In short: as §1

NCI-H2009 = system: NCI-H2009
In short: as §1

NCI-H2228 = system: NCI-H2228
In short: as §1

NCI-H23 = system: NCI-H23
In short: as §1

NCI-H460 = system: NCI-H460
In short: as §1

NCI-H522 = system: NCI-H522
In short: as §1

NCI-H727 = system: NCI-H727
In short: as §1

SK-LU-1 = system: SK-LU-1
In short: as §1

SW 1573 = system: SW 1573
In short: as §1

SMILES: COc1cc2nccc(Oc3ccc(NC(=O)Nc4cc(C)on4)c(Cl)c3)c2cc1OC [Tivozanib] + CC(=O)Nc1cccc(-n2c(=O)n(C3CC3)c(=O)c3c(Nc4ccc(I)cc4F)n(C)c(=O)c(C)c32)c1 [Trametinib] (partner 0.02 µM)
- relative viability (A-427; first compound 0.005 µM): 0.696
- relative viability (A-427; first compound 0.01581 µM): 0.718
- relative viability (A-427; first compound 0.05 µM): 0.758
- relative viability (A-427; first compound 0.1581 µM): 0.67
- relative viability (A-427; first compound 0.5 µM): 0.686
- relative viability (CAL-12T; first compound 0.005 µM): 0.297
- relative viability (CAL-12T; first compound 0.01581 µM): 0.356
- relative viability (CAL-12T; first compound 0.05 µM): 0.414
- relative viability (CAL-12T; first compound 0.1581 µM): 0.235
- relative viability (CAL-12T; first compound 0.5 µM): 0.408
- relative viability (COR-L 105; first compound 0.005 µM): 0.417
- relative viability (COR-L 105; first compound 0.01581 µM): 0.451
- relative viability (COR-L 105; first compound 0.05 µM): 0.454
- relative viability (COR-L 105; first compound 0.1581 µM): 0.482
- relative viability (COR-L 105; first compound 0.5 µM): 0.494
- relative viability (EMC-BAC-2; first compound 0.005 µM): 0.886
- relative viability (EMC-BAC-2; first compound 0.01581 µM): 0.844
- relative viability (EMC-BAC-2; first compound 0.05 µM): 0.905
- relative viability (EMC-BAC-2; first compound 0.1581 µM): 0.827
- relative viability (EMC-BAC-2; first compound 0.5 µM): 0.952
- relative viability (HARA; first compound 0.005 µM): 0.628
- relative viability (HARA; first compound 0.01581 µM): 0.817
- relative viability (HARA; first compound 0.05 µM): 0.615
- relative viability (HARA; first compound 0.1581 µM): 1.06
- relative viability (HARA; first compound 0.5 µM): 0.744
- relative viability (HCC-366; first compound 0.005 µM): 0.363
- relative viability (HCC-366; first compound 0.01581 µM): 0.349
- relative viability (HCC-366; first compound 0.05 µM): 0.341
- relative viability (HCC-366; first compound 0.1581 µM): 0.323
- relative viability (HCC-366; first compound 0.5 µM): 0.426
- relative viability (HCC-827; first compound 0.005 µM): 0.52
- relative viability (HCC-827; first compound 0.01581 µM): 0.543
- relative viability (HCC-827; first compound 0.05 µM): 0.571
- relative viability (HCC-827; first compound 0.1581 µM): 0.527
- relative viability (HCC-827; first compound 0.5 µM): 0.533
- relative viability (HOP-62; first compound 0.005 µM): 0.343
- relative viability (HOP-62; first compound 0.01581 µM): 0.398
- relative viability (HOP-62; first compound 0.05 µM): 0.439
- relative viability (HOP-62; first compound 0.1581 µM): 0.377
- relative viability (HOP-62; first compound 0.5 µM): 0.502
- relative viability (LCLC-103H; first compound 0.005 µM): 0.673
- relative viability (LCLC-103H; first compound 0.01581 µM): 0.78
- relative viability (LCLC-103H; first compound 0.05 µM): 0.694
- relative viability (LCLC-103H; first compound 0.1581 µM): 0.729
- relative viability (LCLC-103H; first compound 0.5 µM): 0.695
- relative viability (NCI-H1395; first compound 0.005 µM): 0.992
- relative viability (NCI-H1395; first compound 0.01581 µM): 0.961
- relative viability (NCI-H1395; first compound 0.05 µM): 1.17
- relative viability (NCI-H1395; first compound 0.1581 µM): 0.952
- relative viability (NCI-H1395; first compound 0.5 µM): 0.938
- relative viability (NCI-H1437; first compound 0.005 µM): 0.567
- relative viability (NCI-H1437; first compound 0.01581 µM): 0.535
- relative viability (NCI-H1437; first compound 0.05 µM): 0.592
- relative viability (NCI-H1437; first compound 0.1581 µM): 0.49
- relative viability (NCI-H1437; first compound 0.5 µM): 0.522
- relative viability (NCI-H1755; first compound 0.005 µM): 0.664
- relative viability (NCI-H1755; first compound 0.01581 µM): 0.75
- relative viability (NCI-H1755; first compound 0.05 µM): 0.804
- relative viability (NCI-H1755; first compound 0.1581 µM): 0.739
- relative viability (NCI-H1755; first compound 0.5 µM): 0.77
- relative viability (NCI-H1792; first compound 0.005 µM): 0.401
- relative viability (NCI-H1792; first compound 0.01581 µM): 0.397
- relative viability (NCI-H1792; first compound 0.05 µM): 0.438
- relative viability (NCI-H1792; first compound 0.5 µM): 0.632
- relative viability (NCI-H1915; first compound 0.005 µM): 0.318
- relative viability (NCI-H1915; first compound 0.01581 µM): 0.305
- relative viability (NCI-H1915; first compound 0.05 µM): 0.3
- relative viability (NCI-H1915; first compound 0.1581 µM): 0.273
- relative viability (NCI-H1915; first compound 0.5 µM): 0.304
- relative viability (NCI-H2009; first compound 0.005 µM): 0.269
- relative viability (NCI-H2009; first compound 0.01581 µM): 0.323
- relative viability (NCI-H2009; first compound 0.05 µM): 0.295
- relative viability (NCI-H2009; first compound 0.1581 µM): 0.204
- relative viability (NCI-H2009; first compound 0.5 µM): 0.339
- relative viability (NCI-H2228; first compound 0.005 µM): 0.55
- relative viability (NCI-H2228; first compound 0.01581 µM): 0.595
- relative viability (NCI-H2228; first compound 0.05 µM): 0.514
- relative viability (NCI-H2228; first compound 0.1581 µM): 0.249
- relative viability (NCI-H2228; first compound 0.5 µM): 0.539
- relative viability (NCI-H23; first compound 0.005 µM): 0.363
- relative viability (NCI-H23; first compound 0.01581 µM): 0.364
- relative viability (NCI-H23; first compound 0.05 µM): 0.383
- relative viability (NCI-H23; first compound 0.5 µM): 0.373
- relative viability (NCI-H460; first compound 0.005 µM): 0.13
- relative viability (NCI-H460; first compound 0.01581 µM): 0.192
- relative viability (NCI-H460; first compound 0.05 µM): 0.254
- relative viability (NCI-H460; first compound 0.1581 µM): 0.13
- relative viability (NCI-H460; first compound 0.5 µM): 0.236
- relative viability (NCI-H522; first compound 0.005 µM): 0.877
- relative viability (NCI-H522; first compound 0.01581 µM): 0.732
- relative viability (NCI-H522; first compound 0.05 µM): 0.705
- relative viability (NCI-H522; first compound 0.1581 µM): 0.684
- relative viability (NCI-H522; first compound 0.5 µM): 0.804
- relative viability (NCI-H727; first compound 0.005 µM): 0.385
- relative viability (NCI-H727; first compound 0.01581 µM): 0.419
- relative viability (NCI-H727; first compound 0.05 µM): 0.366
- relative viability (NCI-H727; first compound 0.1581 µM): 0.38
- relative viability (NCI-H727; first compound 0.5 µM): 0.398
- relative viability (SK-LU-1; first compound 0.005 µM): 0.508
- relative viability (SK-LU-1; first compound 0.01581 µM): 0.498
- relative viability (SK-LU-1; first compound 0.05 µM): 0.594
- relative viability (SK-LU-1; first compound 0.1581 µM): 0.3
- relative viability (SK-LU-1; first compound 0.5 µM): 0.503
- relative viability (SW 1573; first compound 0.005 µM): 0.541
- relative viability (SW 1573; first compound 0.01581 µM): 0.644
- relative viability (SW 1573; first compound 0.05 µM): 0.464
- relative viability (SW 1573; first compound 0.1581 µM): 0.457
- relative viability (SW 1573; first compound 0.5 µM): 0.416
